This series deals with TA1537. The series is described as follows: Ames assay, dark mutagenicity, strain TA1537. On the procedure:
In this example the compounds of the present invention are tested for their dark mutagenicity using an Ames assay. The procedures used for the Salmonella mutagenicity test as described in detail by Maron and Ames were followed exactly. Maron, D. M. and B. N. Ames, Mutation Research 113:173 (1983). A brief description for each procedure is given here. The tester strains TA97a, TA98, TA100, TA102, TA1537 and TA1538 were obtained from Dr. Ames. TA97a, TA98, TA1537 and TA1538 are frameshift tester strains. TA100 and TA102 are base-substitution tester strains. Upon receipt each strain was cultured under a variety of conditions to confirm the genotypes specific to the strains.
The first tests done with the strains were to determine the range of spontaneous reversion for each of the strains. With each mutagenicity experiment the spontaneous reversion of the tester strains to histidine independence was measured and expressed as the number of spontaneous revertants per plate. This served as the background controls.
For all experiments, the pre-incubation procedure was used. In this procedure one vial of each tester strain was thawed and 20 μL of this culture was added to 6 mL of Oxoid Nutrient Broth #2. This solution was allowed to shake for 10 hours at 37° C. In the pre-incubation procedure, 0.1 mL of this overnight culture was added to each of the required number of sterile test tubes. To half of the tubes 0.5 mL of a 10% S-9 solution containing Aroclor 1254 induced rat liver extract (Molecular Toxicology Inc., Annapolis, MD), and MgCl2, KCl, glucose-6-phosphate, NADP, and sodium phosphate buffer (Sigma, St. Louis. Mo.) were added. To the other half of the tubes 0.5 mL of 0.2M sodium phospate buffer, pH 7.4, was used in place of the S-9 mixture (the -S9 samples) Finally 0.1 mL of the test solution containing either 0.0.1, 0.5, 1, 5, 10, 50, 100, 250, or 500 μg/mL of the test compound was added. The 0.7 mL mixture pre-incubated while shaking for 20 minutes at 37° C. After shaking, 2 mL of molten top agar supplemented with histidine and biotin were added to the 0.7 mL mixture and immediately poured onto a minimal glucose agar plate (volume of base agar was 20 ml.). The top agar was allowed 30 minutes to solidify and then the plates were inverted and incubated for 44 hours at 37° C. After incubation the number of revertant colonies on each plate were counted. […] (“n” represents the number of replicates performed for each data point.)
Maron and Ames (1983) describe the conflicting views with regard to the statistical treatment of data generated from the test.

Where a name gives a salt, the structure may show the parent alone.

Regarding `Cc1oc2c(C)c3oc(=O)cc(C)c3cc2c1CNCCCCN` [Compound 6, 4′-(6-Aminohexyl-2-aza)-4,5′,8-trimethylpsoralen Dihydrochloride], the “revertant colonies per plate” value reads like this: (TA1537 +S9, 10 μg/plate) −1; (TA1537 +S9, 50 μg/plate) 17; (TA1537 +S9, 250 μg/plate) 99; (TA1537 +S9, 500 μg/plate) 369; (TA1537 −S9, 10 μg/plate) 141; (TA1537 −S9, 50 μg/plate) 2010. For the same molecule, the “revertant colonies per plate” value by setting is: (TA1537 −S9, 100 μg/plate) 795; (TA1537 −S9, 250 μg/plate) 228; (TA1537 −S9, 500 μg/plate) 43. Further, under “TA1537, in the presence of S9”, the “dose showing a response” value is given as 50 μg/plate.

The values above are taken from patent US6420570B1, “Psoralen compounds” (priority 1993, dated 2002).
